Source: patent US9181183B2, “Prostaglandin D synthase inhibitory piperidine compounds” (Taiho Pharmaceutical Co., Ltd., priority 2010, dated 2015)

Molecular target: human H-PGDS (Homo sapiens, UniProt O60760)
Test: Hematopoietic prostaglandin D synthase (H-PGDS) inhibiting action, [14C]PGH2 to PGD2 conversion, TLC radioassay
Format: biochemical
Conditions: compound 0.1 μM, inhibition rate relative to solvent control group, [14C] prostaglandin H2 10 μM, 25° C.; for inhibition at 0.1 µM: read-out: H-PGDS inh. (% at 0.1 μM)
Protocol: The test was carried out according to the method of Urade, Y. et al. (J. Biol. Chem., 262, 3820-3825, (1987)). More specifically, a reaction mixture (49 μL) containing 100 mM Tris-HCl (pH 8.0), 1 mM reduced form glutathione, 0.1 mg/mL γ-globulin, human H-PGDS (q.s.), and a compound (0.1 μM) was preincubated at 25° C. for 5 minutes. A DMSO solution (final concentration: 1%) was added to the solvent control group. Subsequently, 1 μL of [^14C] prostaglandin H2 (final concentration: 10 μM) was added to start the reaction. One minute after the start of the reaction, 250 μL of a reaction stopper solution (diethylether/methanol/1M citric acid (30/4/1)) cooled with ice was added to stop the reaction. After the reaction was stopped, 50 μL of the upper layer portion (organic solvent phase) was applied to a TLC plate and developed at −20° C. for 45 minutes (developing solvent: diethylether/methanol/acetic acid (90/2/1)). After the TLC plate was dried and exposed to an imaging plate for 1 to 24 hours, the radioactivity corresponding to prostaglandin D2 (PGD2) was analyzed using an image analyzer (produced by Fujifilm Corporation). The area (%) occupied by the PGD2 band per lane and the inhibition rate (%) of each Example compound at 0.1 μM relative to the control group in each experiment were calculated.

Chain of human H-PGDS (O60760 whole entry): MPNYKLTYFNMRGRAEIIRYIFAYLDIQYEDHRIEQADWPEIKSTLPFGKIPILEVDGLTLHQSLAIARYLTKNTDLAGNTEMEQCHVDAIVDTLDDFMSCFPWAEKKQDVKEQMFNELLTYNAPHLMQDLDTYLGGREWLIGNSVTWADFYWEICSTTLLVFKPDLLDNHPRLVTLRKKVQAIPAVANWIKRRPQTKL

Row | inhibition at 0.1 µM [%] | Compound | H-PGDS inh. (% at 0.1 μM) [%]
1 | 50 | O=C(O)c1ccc(-c2ncc(NC(=O)N3CCC(=Cc4ccccn4)CC3)cn2)cc1 [Example 33, 4-(5-(4-(pyridin-2-ylmethylene)piperidine-1-carboxamido)pyrimidin-2-yl)benzoic acid] | 
2 | 50 | O=C(NC1CCN(C(=O)c2ccccn2)CC1)N1CCC(=Cc2cc(F)ccc2F)CC1 [Example 51, 4-(2,5-difluorobenzylidene)-N-(1-picolinoylpiperidin-4-yl)piperidine-1-carboxamide] | 
3 | 85.9 | O=C(NC1CCN(C(=O)c2cccs2)CC1)N1CCC(=Cc2cc(F)ccc2F)CC1 [Example 54, 4-(2,5-difluorobenzylidene)-N-(1-(thiophene-2-carbonyl)piperidin-4-yl)piperidine-1-carboxamide] | 
4 | 79.4 | O=C(Nc1ccc(NC(=O)N2CCC(=Cc3cc(F)ccc3F)CC2)cc1)c1ccsc1 [Example 76, 4-(2,5-difluorobenzylidene)-N-(4-(thiophene-3-carboxamido)phenyl)piperidine-1-carboxamide] | 
5 | 71.2 | O=C(Nc1ccc(NC(=O)N2CCC(=Cc3cc(F)ccc3F)CC2)cc1)c1cscn1 [Example 75, N-(4-(4-(2,5-difluorobenzylidene)piperidine-1-carboxamido)phenyl)thiazole-4-carboxamide] | 
6 |  | N-(4-(4-(morpholin-1-yl-carbonyl)piperidin-1-yl)phenyl)-2-(4-(pyridin-2-ylmethylene)piperidine-1-carboxamido)thiazole-5-carboxamide [Example 15] | 68.6
7 | 68 | O=C(NC1CCN(C(=O)C(F)F)CC1)N1CCC(=Cc2cc(F)ccc2F)CC1 [Example 43, N-(1-(2,2-difluoroacetyl)piperidin-4-yl)-4-(2,5-difluorobenzylidene)piperidine-1-carboxamide] | 
8 | 64.8 | N#Cc1cccc(CN2CCC(NC(=O)N3CCC(=Cc4cc(F)ccc4F)CC3)CC2)c1 [Example 37, N-(1-(3-cyanobenzyl)piperidin-4-yl)-4-(2,5-difluorobenzylidene)piperidine-1-carboxamide] | 
9 | 74.2 | COc1ccc(-c2ccc3nc(NC(=O)N4CCC(=Cc5ccccn5)CC4)sc3c2)cn1 [Example 7, N-(6-(2-methoxypyridin-5-yl)-benzo[d]thiazol-2-yl)-4-(pyridin-2-ylmethylene)-piperidine-1-carboxamide] | 
10 | 41.6 | Cc1nccn1Cc1cnc(NC(=O)N2CCC(=Cc3ccccn3)CC2)s1 [Example 83, N-(5-((2-methyl-1H-imidazol-1-yl)methyl)thiazol-2-yl)-4-(pyridin-2-ylmethylene)piperidine-1-carboxamide] | 
11 |  | N-(5-(4-(cyclopropylcarboxamido)phenyl)thiazol-2-yl)-4-(pyridin-2-ylmethylene)piperidine-1-carboxamide [Example 21] | 58.7
12 | 61.4 | O=C(Nc1cnc2ccccc2c1)N1CCC(=Cc2cc(F)ccc2F)CC1 [Example 42, 4-(2,5-difluorobenzylidene)-N-(quinolin-3-yl)piperidine-1-carboxamide] | 
13 |  | N-(6-(4-morpholin-1-yl-carbonylphenyl)-benzo[d]thiazol-2-yl)-4-(pyridin-2-ylmethylene)-piperidine-1-carboxamide [Example 2] | 64.4
14 | 65 | O=C(Nc1ncc(C(=O)N2CCCCC2)s1)N1CCC(=Cc2ccccn2)CC1 [Example 17, N-(5-(piperidin-1-yl-carbonyl)thiazol-2-yl)-4-(pyridin-2-ylmethylene)piperidine-1-carboxamide] | 
15 | 59 | COC(=O)c1ccc(N2CCC(NC(=O)N3CCC(=Cc4cc(F)ccc4F)CC3)CC2)cc1 [Example 41, Methyl 4-(4-(4-(2,5-difluorobenzylidene)piperidine-1-carboxamido)piperidin-1-yl)benzoate] | 
16 | 53.9 | O=C(Nc1ccc(CCn2ccnn2)cc1)c1cnc(NC(=O)N2CCC(=Cc3ccccn3)CC2)s1 [Example 14, N-(4-(2-(1H-1,2,3-triazol-1-yl)ethyl)phenyl)-2-(4-(pyridin-2-ylmethylene)piperidine-1-carboxamido)thiazole-5-carboxamide] | 
17 | 57.4 | O=C(Nc1ccc(-c2cnc(NC(=O)N3CCC(=Cc4ccccn4)CC3)s2)cc1)c1cscn1 [Example 26, N-(4-(2-(4-(pyridin-2-ylmethylene)piperidine-1-carboxamido)thiazol-5-yl)phenyl)thiazole-4-carboxamide] | 
